#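 Values below derive from 48-hour exposures of cells grown in 96-well plates, with endpoints linearly interpolated between the two concentrations bracketing the appropriate inhibition level. TGI denotes the concentration required for complete inhibition of growth.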
# Legend:
# Assay in all cases: NCI tumour cell line growth inhibition, 48 h
# 786-0 renal = system: 786-0 renal
# A498 renal = system: A498 renal
# A549 NSCLC = system: A549 NSCLC
# ACHN renal = system: ACHN renal
# CAKI-1 renal = system: CAKI-1 renal
# CCRF-CEM leukemia = system: CCRF-CEM leukemia
# COLO 205 colon = system: COLO 205 colon
# DU-145 prostate = system: DU-145 prostate
# EKVX NSCLC = system: EKVX NSCLC
# HCC-2998 colon = system: HCC-2998 colon
# HCT-116 colon = system: HCT-116 colon
# HCT-15 colon = system: HCT-15 colon
# HL-60(TB) leukemia = system: HL-60(TB) leukemia
# HOP-62 NSCLC = system: HOP-62 NSCLC
# HOP-92 NSCLC = system: HOP-92 NSCLC
# HS 578T breast = system: HS 578T breast
# HT29 colon = system: HT29 colon
# IGROV1 ovarian = system: IGROV1 ovarian
# K-562 leukemia = system: K-562 leukemia
# KM12 colon = system: KM12 colon
# LOX IMVI melanoma = system: LOX IMVI melanoma
# M14 melanoma = system: M14 melanoma
# MALME-3M melanoma = system: MALME-3M melanoma
# MDA-MB-231 breast = system: MDA-MB-231 breast
# MDA-MB-435 = system: MDA-MB-435
# MDA-N = system: MDA-N
# MOLT-4 leukemia = system: MOLT-4 leukemia
# NCI-H226 lung = system: NCI-H226 lung
# NCI-H23 lung = system: NCI-H23 lung
# NCI-H460 lung = system: NCI-H460 lung
# NCI-H522 lung = system: NCI-H522 lung
# NCI/ADR-RES ovarian = system: NCI/ADR-RES ovarian
# OVCAR-3 ovarian = system: OVCAR-3 ovarian
# OVCAR-4 ovarian = system: OVCAR-4 ovarian
# OVCAR-5 ovarian = system: OVCAR-5 ovarian
# OVCAR-8 ovarian = system: OVCAR-8 ovarian
# PC-3 prostate = system: PC-3 prostate
# RPMI-8226 leukemia = system: RPMI-8226 leukemia
# RXF 393 renal = system: RXF 393 renal
# SF-268 CNS = system: SF-268 CNS
# SF-295 CNS = system: SF-295 CNS
# SF-539 CNS = system: SF-539 CNS
# SK-MEL-2 melanoma = system: SK-MEL-2 melanoma
# SK-MEL-28 melanoma = system: SK-MEL-28 melanoma
# SK-MEL-5 melanoma = system: SK-MEL-5 melanoma
# SK-OV-3 ovarian = system: SK-OV-3 ovarian
# SN12C renal = system: SN12C renal
# SNB-19 CNS = system: SNB-19 CNS
# SNB-75 CNS = system: SNB-75 CNS
# SR leukemia = system: SR leukemia
# SW-620 colon = system: SW-620 colon
# T-47D breast = system: T-47D breast
# TK-10 renal = system: TK-10 renal
# U251 CNS = system: U251 CNS
# UACC-257 melanoma = system: UACC-257 melanoma
# UACC-62 melanoma = system: UACC-62 melanoma
# UO-31 renal = system: UO-31 renal
# MCF7 breast = system: MCF7 breast
smiles,measurement,setting,value
Nc1nc(N)c2c(CCc3ccc(C(=O)N[C@@H](CCC(=O)O)C(=O)O)cc3)ccnc2n1,TGI,786-0 renal,> 100 µM
same,TGI,A498 renal,> 100 µM
same,TGI,A549 NSCLC,> 100 µM
same,TGI,ACHN renal,> 100 µM
same,TGI,CAKI-1 renal,> 100 µM
same,TGI,CCRF-CEM leukemia,> 100 µM
same,TGI,COLO 205 colon,> 100 µM
same,TGI,DU-145 prostate,> 100 µM
same,TGI,EKVX NSCLC,> 100 µM
same,TGI,HCC-2998 colon,0.0952 µM
same,TGI,HCT-116 colon,> 100 µM
same,TGI,HCT-15 colon,> 100 µM
same,TGI,HL-60(TB) leukemia,> 100 µM
same,TGI,HOP-62 NSCLC,> 100 µM
same,TGI,HOP-92 NSCLC,> 100 µM
same,TGI,HS 578T breast,> 100 µM
same,TGI,HT29 colon,> 100 µM
same,TGI,IGROV1 ovarian,> 100 µM
same,TGI,K-562 leukemia,> 100 µM
same,TGI,KM12 colon,> 100 µM
same,TGI,LOX IMVI melanoma,> 100 µM
same,TGI,M14 melanoma,> 100 µM
same,TGI,MALME-3M melanoma,> 100 µM
same,TGI,MDA-MB-231 breast,> 100 µM
same,TGI,MDA-MB-435,> 100 µM
same,TGI,MDA-N,> 100 µM
same,TGI,MOLT-4 leukemia,> 100 µM
same,TGI,NCI-H226 lung,> 100 µM
same,TGI,NCI-H23 lung,> 100 µM
same,TGI,NCI-H460 lung,> 100 µM
same,TGI,NCI-H522 lung,> 100 µM
same,TGI,NCI/ADR-RES ovarian,> 100 µM
same,TGI,OVCAR-3 ovarian,> 100 µM
same,TGI,OVCAR-4 ovarian,> 100 µM
same,TGI,OVCAR-5 ovarian,> 100 µM
same,TGI,OVCAR-8 ovarian,> 100 µM
same,TGI,PC-3 prostate,> 100 µM
same,TGI,RPMI-8226 leukemia,> 100 µM
same,TGI,RXF 393 renal,> 100 µM
same,TGI,SF-268 CNS,> 100 µM
same,TGI,SF-295 CNS,> 100 µM
same,TGI,SF-539 CNS,> 100 µM
same,TGI,SK-MEL-2 melanoma,> 100 µM
same,TGI,SK-MEL-28 melanoma,> 100 µM
same,TGI,SK-MEL-5 melanoma,> 100 µM
same,TGI,SK-OV-3 ovarian,> 100 µM
same,TGI,SN12C renal,> 100 µM
same,TGI,SNB-19 CNS,> 100 µM
same,TGI,SNB-75 CNS,> 100 µM
same,TGI,SR leukemia,> 100 µM
same,TGI,SW-620 colon,> 100 µM
same,TGI,T-47D breast,> 100 µM
same,TGI,TK-10 renal,> 100 µM
same,TGI,U251 CNS,> 100 µM
same,TGI,UACC-257 melanoma,> 100 µM
same,TGI,UACC-62 melanoma,> 100 µM
same,TGI,UO-31 renal,> 100 µM
CCOP(=O)(OCC)c1cc2cc(O)ccc2oc1=O,TGI,786-0 renal,> 100 µM
same,TGI,A498 renal,> 100 µM
same,TGI,A549 NSCLC,> 100 µM
same,TGI,ACHN renal,> 100 µM
same,TGI,CAKI-1 renal,> 100 µM
same,TGI,CCRF-CEM leukemia,> 100 µM
same,TGI,COLO 205 colon,> 100 µM
same,TGI,DU-145 prostate,> 100 µM
same,TGI,EKVX NSCLC,> 100 µM
same,TGI,HCC-2998 colon,> 100 µM
same,TGI,HCT-116 colon,> 100 µM
same,TGI,HCT-15 colon,> 100 µM
same,TGI,HL-60(TB) leukemia,> 100 µM
same,TGI,HOP-62 NSCLC,> 100 µM
same,TGI,HOP-92 NSCLC,> 100 µM
same,TGI,HS 578T breast,> 100 µM
same,TGI,HT29 colon,> 100 µM
same,TGI,IGROV1 ovarian,> 100 µM
same,TGI,K-562 leukemia,> 100 µM
same,TGI,KM12 colon,> 100 µM
same,TGI,LOX IMVI melanoma,> 100 µM
same,TGI,M14 melanoma,> 100 µM
same,TGI,MCF7 breast,> 100 µM
same,TGI,MDA-MB-231 breast,> 100 µM
same,TGI,MDA-MB-435,> 100 µM
same,TGI,MDA-N,> 100 µM
same,TGI,NCI-H226 lung,> 100 µM
same,TGI,NCI-H23 lung,> 100 µM
same,TGI,NCI-H460 lung,> 100 µM
same,TGI,NCI-H522 lung,> 100 µM
same,TGI,NCI/ADR-RES ovarian,> 100 µM
same,TGI,OVCAR-3 ovarian,> 100 µM
same,TGI,OVCAR-4 ovarian,> 100 µM
same,TGI,OVCAR-5 ovarian,> 100 µM
same,TGI,OVCAR-8 ovarian,> 100 µM
same,TGI,PC-3 prostate,> 100 µM
same,TGI,RPMI-8226 leukemia,> 100 µM
same,TGI,RXF 393 renal,> 100 µM
same,TGI,SF-268 CNS,> 100 µM
same,TGI,SF-295 CNS,> 100 µM
same,TGI,SF-539 CNS,> 100 µM
same,TGI,SK-MEL-28 melanoma,> 100 µM
same,TGI,SK-MEL-5 melanoma,> 100 µM
same,TGI,SK-OV-3 ovarian,> 100 µM
same,TGI,SN12C renal,> 100 µM
same,TGI,SNB-19 CNS,> 100 µM
same,TGI,SNB-75 CNS,> 100 µM
same,TGI,SR leukemia,> 100 µM
same,TGI,SW-620 colon,> 100 µM
same,TGI,T-47D breast,> 100 µM
same,TGI,TK-10 renal,> 100 µM
same,TGI,U251 CNS,> 100 µM
same,TGI,UACC-257 melanoma,> 100 µM
same,TGI,UACC-62 melanoma,> 100 µM
same,TGI,UO-31 renal,0.151 µM
